Experimental data published in US10765114B2, “4-amino-6-(pyridyl and 2-substitutedphenyl)-picolinates and 6-amino-2-(pyridyl and 2-substitutedphenyl)-pyrimidine-4-carboxylates and their use as herbicides” (Dow AgroSciences LLC, priority 2013, dated 2020).

Test system: Key Broadleaf Weed and Crop Species
Assay: Post-Emergent Test II (Table 5)
Format: in vivo
Conditions: Abutilon theophrasti, post-emergence, 336 h, ABUTH: velvetleaf (Abutilon theophrasti), application rate 70 (kg ai/ha; footnote: g ai/ha), read-out: Visual Growth Reduction (%) 14 Days After Application ABUTH
Method: (§1) Seeds or nutlets of the desired test plant species were planted in Sun Gro Metro-Mix® 360 planting mixture, which typically has a pH of 6.0 to 6.8 and an organic matter content of about 30 percent, in plastic pots with a surface area of 64 square centimeters. When required to ensure good germination and healthy plants, a fungicide treatment and/or other chemical or physical treatment was applied. The plants were grown for 7-21 days in a greenhouse with an approximate 15 h photoperiod which was maintained at about 23-29° C. during the day and 22-28° C. during the night. Nutrients and water were added on a regular basis and supplemental lighting was provided with overhead metal halide 1000-Watt lamps as necessary. The plants were employed for testing when they reached the first or second true leaf stage.
(§2) A weighed amount, determined by the highest rate to be tested, of each test compound was placed in a 25 mL glass vial and was dissolved in 4 mL of a 97:3 v/v mixture of acetone and DMSO to obtain concentrated stock solutions. […] The concentrated stock solutions obtained were diluted with 20 mL of an aqueous mixture containing acetone, water, isopropyl alcohol, DMSO, Atplus 411F crop oil concentrate, and Triton® X-155 surfactant in a 48.5:39:10:1.5:1.0:0.02 v/v ratio to obtain spray solutions containing the highest application rates. Additional application rates were obtained by serial dilution of 12 mL of the high rate solution into a solution containing 2 mL of 97:3 v/v mixture of acetone and DMSO and 10 mL of an aqueous mixture containing acetone, water, isopropyl alcohol, DMSO, Atplus 411F crop oil concentrate, and Triton X-155 surfactant in a 48.5:39:10:1.5:1.0:0.02 v/v ratio to obtain ½×, ¼×, ⅛× and 1/16× rates of the high rate. Compound requirements are based upon a 12 mL application volume at a rate of 187 liters per hectare (L/ha). Formulated compounds were applied to the plant material with an overhead Mandel track sprayer equipped with 8002E nozzles calibrated to deliver 187 L/ha over an application area of 0.503 square meters at a spray height of 18 inches (43 cm) above the average plant canopy height. Control plants were sprayed in the same manner with the solvent blank.
(§3) The treated plants and control plants were placed in a greenhouse as described above and watered by subirrigation to prevent wash-off of the test compounds. After 14 days, the condition of the test plants as compared with that of the untreated plants was determined visually and scored on a scale of 0 to 100 percent where 0 corresponds to no injury and 100 corresponds to complete kill and presented as indicated in Table A. Some of the compounds tested, application rates employed, plant species tested, and results are given in Table 5.

Row | SMILES | pest or weed control at 70 g/ha [%]
1 | Nc1c(F)c(-c2ccc(Cl)c(F)c2Cl)nc(C(=O)O)c1Cl [Compound 16, 4-Amino-3-chloro-6-(2,4-dichloro-3-fluorophenyl)-5-fluoropicolinic acid] | 85 to 94

Same assay, conditions: Abutilon theophrasti, post-emergence, 336 h, ABUTH: velvetleaf (Abutilon theophrasti), application rate 140 (kg ai/ha; footnote: g ai/ha), read-out: Visual Growth Reduction (%) 14 Days After Application ABUTH

Row | SMILES | pest or weed control at 140 g/ha [%]
2 | Nc1c(F)c(-c2ccc(Cl)c(F)c2Cl)nc(C(=O)O)c1Cl [Compound 16, 4-Amino-3-chloro-6-(2,4-dichloro-3-fluorophenyl)-5-fluoropicolinic acid] | 95 to 100

Same assay, conditions: Amaranthus retroflexus, post-emergence, 336 h, AMARE: redroot pigweed (Amaranthus retroflexus), application rate 70 (kg ai/ha; footnote: g ai/ha), read-out: Visual Growth Reduction (%) 14 Days After Application AMARE

Row | SMILES | pest or weed control at 70 g/ha [%]
3 | Nc1c(F)c(-c2ccc(Cl)c(F)c2Cl)nc(C(=O)O)c1Cl [Compound 16, 4-Amino-3-chloro-6-(2,4-dichloro-3-fluorophenyl)-5-fluoropicolinic acid] | 95 to 100

Same assay, conditions: Amaranthus retroflexus, post-emergence, 336 h, AMARE: redroot pigweed (Amaranthus retroflexus), application rate 140 (kg ai/ha; footnote: g ai/ha), read-out: Visual Growth Reduction (%) 14 Days After Application AMARE

Row | SMILES | pest or weed control at 140 g/ha [%]
4 | Nc1c(F)c(-c2ccc(Cl)c(F)c2Cl)nc(C(=O)O)c1Cl [Compound 16, 4-Amino-3-chloro-6-(2,4-dichloro-3-fluorophenyl)-5-fluoropicolinic acid] | 95 to 100

Same assay, conditions: Brassica napus, post-emergence, 336 h, BRSSS: oilseed rape, canola (Brassica napus), application rate 70 (kg ai/ha; footnote: g ai/ha), read-out: Visual Growth Reduction (%) 14 Days After Application BRSSS

Row | SMILES | pest or weed control at 70 g/ha [%]
5 | Nc1c(F)c(-c2ccc(Cl)c(F)c2Cl)nc(C(=O)O)c1Cl [Compound 16, 4-Amino-3-chloro-6-(2,4-dichloro-3-fluorophenyl)-5-fluoropicolinic acid] | 95 to 100

Same assay, conditions: Brassica napus, post-emergence, 336 h, BRSSS: oilseed rape, canola (Brassica napus), application rate 140 (kg ai/ha; footnote: g ai/ha), read-out: Visual Growth Reduction (%) 14 Days After Application BRSSS

Row | SMILES | pest or weed control at 140 g/ha [%]
6 | Nc1c(F)c(-c2ccc(Cl)c(F)c2Cl)nc(C(=O)O)c1Cl [Compound 16, 4-Amino-3-chloro-6-(2,4-dichloro-3-fluorophenyl)-5-fluoropicolinic acid] | 95 to 100

Same assay, conditions: Chenopodium album, post-emergence, 336 h, CHEAL: lambsquarters (Chenopodium album), application rate 70 (kg ai/ha; footnote: g ai/ha), read-out: Visual Growth Reduction (%) 14 Days After Application CHEAL

Row | SMILES | pest or weed control at 70 g/ha [%]
7 | Nc1c(F)c(-c2ccc(Cl)c(F)c2Cl)nc(C(=O)O)c1Cl [Compound 16, 4-Amino-3-chloro-6-(2,4-dichloro-3-fluorophenyl)-5-fluoropicolinic acid] | 95 to 100

Same assay, conditions: Chenopodium album, post-emergence, 336 h, CHEAL: lambsquarters (Chenopodium album), application rate 140 (kg ai/ha; footnote: g ai/ha), read-out: Visual Growth Reduction (%) 14 Days After Application CHEAL

Row | SMILES | pest or weed control at 140 g/ha [%]
8 | Nc1c(F)c(-c2ccc(Cl)c(F)c2Cl)nc(C(=O)O)c1Cl [Compound 16, 4-Amino-3-chloro-6-(2,4-dichloro-3-fluorophenyl)-5-fluoropicolinic acid] | 95 to 100

Same assay, conditions: Euphorbia heterophylla, post-emergence, 336 h, EPHHL: wild poinsettia (Euphorbia heterophylla), application rate 70 (kg ai/ha; footnote: g ai/ha), read-out: Visual Growth Reduction (%) 14 Days After Application EPHHL

Row | SMILES | pest or weed control at 70 g/ha [%]
9 | Nc1c(F)c(-c2ccc(Cl)c(F)c2Cl)nc(C(=O)O)c1Cl [Compound 16, 4-Amino-3-chloro-6-(2,4-dichloro-3-fluorophenyl)-5-fluoropicolinic acid] | 85 to 94

Same assay, conditions: Euphorbia heterophylla, post-emergence, 336 h, EPHHL: wild poinsettia (Euphorbia heterophylla), application rate 140 (kg ai/ha; footnote: g ai/ha), read-out: Visual Growth Reduction (%) 14 Days After Application EPHHL

Row | SMILES | pest or weed control at 140 g/ha [%]
10 | Nc1c(F)c(-c2ccc(Cl)c(F)c2Cl)nc(C(=O)O)c1Cl [Compound 16, 4-Amino-3-chloro-6-(2,4-dichloro-3-fluorophenyl)-5-fluoropicolinic acid] | 95 to 100

Same assay, conditions: Helianthus annuus, post-emergence, 336 h, HELAN: sunflower (Helianthus annuus), application rate 70 (kg ai/ha; footnote: g ai/ha), read-out: Visual Growth Reduction (%) 14 Days After Application HELAN

Row | SMILES | pest or weed control at 70 g/ha [%]
11 | Nc1c(F)c(-c2ccc(Cl)c(F)c2Cl)nc(C(=O)O)c1Cl [Compound 16, 4-Amino-3-chloro-6-(2,4-dichloro-3-fluorophenyl)-5-fluoropicolinic acid] | 95 to 100

Same assay, conditions: Helianthus annuus, post-emergence, 336 h, HELAN: sunflower (Helianthus annuus), application rate 140 (kg ai/ha; footnote: g ai/ha), read-out: Visual Growth Reduction (%) 14 Days After Application HELAN

Row | SMILES | pest or weed control at 140 g/ha [%]
12 | Nc1c(F)c(-c2ccc(Cl)c(F)c2Cl)nc(C(=O)O)c1Cl [Compound 16, 4-Amino-3-chloro-6-(2,4-dichloro-3-fluorophenyl)-5-fluoropicolinic acid] | 95 to 100

Same assay, conditions: Viola tricolor, post-emergence, 336 h, VIOTR: wild pansy (Viola tricolor), application rate 70 (kg ai/ha; footnote: g ai/ha), read-out: Visual Growth Reduction (%) 14 Days After Application VIOTR

Row | SMILES | pest or weed control at 70 g/ha [%]
13 | Nc1c(F)c(-c2ccc(Cl)c(F)c2Cl)nc(C(=O)O)c1Cl [Compound 16, 4-Amino-3-chloro-6-(2,4-dichloro-3-fluorophenyl)-5-fluoropicolinic acid] | 95 to 100

Same assay, conditions: Viola tricolor, post-emergence, 336 h, VIOTR: wild pansy (Viola tricolor), application rate 140 (kg ai/ha; footnote: g ai/ha), read-out: Visual Growth Reduction (%) 14 Days After Application VIOTR

Row | SMILES | pest or weed control at 140 g/ha [%]
14 | Nc1c(F)c(-c2ccc(Cl)c(F)c2Cl)nc(C(=O)O)c1Cl [Compound 16, 4-Amino-3-chloro-6-(2,4-dichloro-3-fluorophenyl)-5-fluoropicolinic acid] | 95 to 100

Test system: Key Grass and Sedge Weeds as well as Grass Crops
Assay: Post-Emergent Test II (Table 6)
Format: in vivo
Conditions: CYPSS (CYPES: yellow nutsedge, Cyperus esculentus), 70 g ai/ha
Method: as §1, §2, §3

Row | SMILES | Visual Growth Reduction (%) 14 Days After Application, CYPSS
15 | Nc1c(F)c(-c2ccc(Cl)c(F)c2Cl)nc(C(=O)O)c1Cl [Compound 16, 4-Amino-3-chloro-6-(2,4-dichloro-3-fluorophenyl)-5-fluoropicolinic acid] | A (95-100)
